Laboratory results: US20220202911A1 (Amryt Endo, Inc., priority 2020, published 2022)

Columns and labels:
clinical [1] = conditions: human, in vivo; for AUC(0-t): AUC(0-12)
clinical [2] = conditions: human, plasma; for AUC(0-t): AUC(0-12)
Text: (§1) This was a single-center, randomized, single-blind, placebo-controlled study in 18 healthy subjects. Two groups of subjects were studied in a 4-treatment, 2-sequence, and crossover design. The study was comprised of a screening period, a treatment period, and a follow-up period (approximately 10-13 days following the last test condition). Subjects were randomized in a 1:1 ratio to one of 2 sequences (i.e., Group 1 or 2) of 4 test conditions (i.e., A-D) as shown in Table 1.

[3] = digoxin 0.5 mg alone (placebo)
Text: as §1

[4] = least squares geometric mean, Reference
[5] = least squares geometric mean, Test
[6] = oral, least squares geometric mean, digoxin alone (second geometric-mean column; no unit printed in Table 7)

AUC0-12 increase (clinical [1]) | Cmax increase (clinical [1]) | Tmax (clinical [1]) | change in the rate of absorption (from Tmax) (clinical [1]) | individual decreases in AUC0-12, 3 of 17 subjects (clinical [1]) | individual increases in AUC0-12, remaining 14 subjects (clinical [1]) | share of the 14 subjects with an increase in AUC0-12 that had an increase 25% (11 subjects) (clinical [1]) | Tmax (clinical [1]; 20 mg) | AUC(0-t) (clinical [1]; 20 mg, mean ± SD) | AUC(0-t) (clinical [1]; [4]) | AUC(0-t) (clinical [1]; [5]) | Cmax (clinical [1]; [4]) | Cmax (clinical [1]; [5]) | Structure (SMILES) | Tmax (clinical [2]; oral) | AUC(0-t) (clinical [2]; oral, 0.5 mg, mean ± SD, digoxin 0.5 mg alone (placebo)) | AUC(0-t) (clinical [2]; [6]) | Cmax (clinical [2]; [6]) | Cmax (clinical [2]; po, mean ± SD, digoxin 0.5 mg oral single dose alone (placebo; lisinopril 20 mg co-administered)) | Tmax, median [3]
40% | 50% | 7 h | no apparent change | 6.17-16.1% | 2.98-140% | 79% | 7.5 h | 690 ± 207 ng·h/mL | 661 ng·h/mL | 923 ng·h/mL | 83.6 ng/mL | 126 ng/mL | NCCCC[C@H](N[C@@H](CCc1ccccc1)C(=O)O)C(=O)N1CCC[C@H]1C(=O)O [Lisinopril, lisinopril] |  |  |  |  |  | 
 |  |  |  |  |  |  |  |  |  |  |  |  | C[C@H]1O[C@@H](O[C@H]2[C@@H](O)C[C@H](O[C@H]3[C@@H](O)C[C@H](O[C@H]4CC[C@@]5(C)[C@H](CC[C@@H]6[C@@H]5C[C@@H](O)[C@]5(C)[C@@H](C7=CC(=O)OC7)CC[C@]65O)C4)O[C@@H]3C)O[C@@H]2C)C[C@H](O)[C@@H]1O [Digoxin, digoxin] | 3 h | 9.14 ± 2.03 ng·h/mL | 8.91 ng·h/mL | 2.38 ng/mL | 2.5 ± 0.71 ng/mL | 1 h
